The values that follow come from US20100197591A1, “4-AMINO-7,8-DIHYDROPYRIDO[4,3-d]PYRIMIDIN-5(6H)-ONE DERIVATIVES” (pfizer Inc, priority 2009, published 2010).

The structures appear in SMILES notation.

In the assay the target is T1, Human full-length diacylglycerol:acylCoA acyltransferase 1 (DGAT-1) (Homo sapiens, UniProt O75907).
T1 construct: Human full-length diacylglycerol:acylCoA acyltransferase 1 (DGAT-1) was expressed in Sf9 insect cells; made in house; host or cells: Sf9 insect cells (baculovirus); crude membrane/microsome fraction
T1 sequence (O75907 1-488): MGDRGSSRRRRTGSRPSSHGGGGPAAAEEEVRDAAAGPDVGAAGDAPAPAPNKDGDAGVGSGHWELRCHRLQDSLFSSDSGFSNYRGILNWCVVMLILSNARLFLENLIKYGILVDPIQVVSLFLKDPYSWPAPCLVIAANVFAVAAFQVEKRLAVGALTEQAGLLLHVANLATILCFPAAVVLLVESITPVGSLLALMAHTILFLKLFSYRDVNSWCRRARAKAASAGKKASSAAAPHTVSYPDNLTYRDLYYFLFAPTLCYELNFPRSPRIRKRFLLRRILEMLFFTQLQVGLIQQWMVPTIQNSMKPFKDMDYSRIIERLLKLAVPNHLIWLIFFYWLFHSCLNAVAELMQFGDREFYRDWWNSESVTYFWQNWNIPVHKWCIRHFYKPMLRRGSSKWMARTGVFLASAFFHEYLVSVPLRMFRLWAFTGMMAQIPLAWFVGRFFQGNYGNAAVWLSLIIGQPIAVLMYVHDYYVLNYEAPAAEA
The assay is described as follows: DGAT-1 Reduced Microsome Multidose Assay, G7329F Human IC50. Format: biochemical. The conditions noted are these: crude membrane fraction of Sf9 cells expressing human DGAT-1; [14C]decanoylCoA; apparent IC50, average where tested more than once. On the procedure:
Human full-length diacylglycerol:acylCoA acyltransferase 1 (DGAT-1) was expressed in Sf9 insect cells which are then lysed and a crude membrane fraction (105,000×g pellet) was prepared. The DGAT-1 gene is a human DGAT-1 gene described in J Biol Chem 273:26765 (1998) and U.S. Pat. No. 6,100,077.
In vitro inhibition of DGAT-1 was measured using a modification, further described below, of the assay methodology described in U.S. Pat. No. 6,994,956 B2.
The cells were cultured as follows. Sf9 cells (20 L) were infected with 4 mL of DGAT-1 Baculovirus Infected Insect Cells (BIIC) for 72 hours in a Wave Bioreactor System 20/50P (Wave Biotec/GE Healthcare).
Crude DGAT-1 microsomes were prepared as follows. Cell pellets were washed once with ice-cold Dulbecco's phosphate-buffered saline. Cells were collected in tabletop centrifuge (Beckman GS-6KR), 15 minutes, 2000×g, 4° C. Twenty (20) mL of ice-cold Microsome Buffer (MB) was added per 5 g of cell pellet. The suspension was passed through a microfluidizer 3 times (18K psi). The lysate was transferred to centrifuge tubes and centrifuged for 20 minutes at 5000×g (Beckman-Coulter, Inc. Allegra® 64R High-Speed Refrigerated Benchtop Centrifuge, F0650 rotor) at 4° C. The supernatant was transferred to ultracentrifuge tubes and centrifuged at 125,000×g for 1 hour in a Beckman Ti-45 rotor, 4° C. The supernatant fluid was discarded. The pellet was resuspended in 70 mL of MB by sonication. The microsome concentration was determined using Bio-Rad Protein DC Protein Assay. The microsomes were filter sterilized with a 0.22 μm filter. The samples were portioned, flash frozen and stored at −80° C.
The Microsome Buffer, used for microsome preparation, was prepared by conventional means and contained 125 mM sucrose, 3 mM imidazole, 0.2 μg/mL aprotinin, 0.2 μg/mL leupeptin and 5 mM dithiothreitol (Cleland's reagent), DGAT-1 activity was measured in 384-well format in a total assay volume of 25 μl that contained, Hepes buffer (50 mM, pH 7.5), MgCl2 (10 mM), bovine serum albumin (0.6 mg/ml), [^14C]decanoylCoA (20 μM, 58 Ci/mol) and membranes (25 μg/ml) into which 1,2 dioleoyl-sn-glycerol (75 μM) in acetone has already been incorporated. Inhibitors in DMSO were pre-incubated with membranes before initiating the DGAT-1 reaction by the addition of decanoylCoA. […] The DMSO concentration was 2.5%. The inhibitors were present at a range of eight concentrations to generate an apparent IC50 for each compound. The eight inhibitor concentration employed ranged from 10 μM to 3 nM (from high to low concentration). Specifically, the eight concentrations used were 10 μM, 3 μM, 1 μM, 300 nM, 100 nM, 30 nM, 10 nM and 3 nM.
Reaction mixtures were neutralized by the addition of 15 μl of tris(hydroxy-methyl)aminomethane (1M, pH 8.0) and then mixed by trituration with 37.5 μl of Microscint™-E (Perkin Elmer). Plates contents were allowed to partition for 15 to 30 min before ^14C was measured in a scintillation spectrometer (Wallac Microbeta Trilux 1450-030 liquid scintillation counter 12 detector in the top-count DPM mode). Percent inhibition of test compounds was computed as […].
Four separate assays were performed using 4 different methods of analysis. The method of analysis of Assay 1 was the same as Assay 4 (described above) except microsomes were utilized at 25 μg/mL instead of 5 μg/mL. The method of analysis of Assay 2 was the same as Assay 4 (described above) except eleven (11) concentrations of inhibitor were employed instead of eight (8). The method of analysis of Assay 3 was the same as Assay 2 except the compounds were serially diluted in a different laboratory.
Where this DGAT-1 inhibition assay was performed on a compound more than once, an average is provided for that compound.
Usually IC50 stands for the point on the concentration scale where inhibition reaches its midpoint. Take `COc1nc(N)c2c(n1)CCN(c1ccc(C(C)(C)C(F)(F)F)cc1)C2=O` [Example 6K, 4-amino-2-methoxy-6-[4-(2,2,2-trifluoro-1,1-dimethylethyl)phenyl]-7,8-dihydropyrido[4,3-d]pyrimidin-5(6H)-one]: the half-inhibitory concentration (IC50) came out at 0.0327 µM.
For `COc1nc(N)c2c(n1)CCN(c1ccc3c(c1)CCC3)C2=O` [Example 1D, 4-amino-6-(2,3-dihydro-1H-inden-5-yl)-2-methoxy-7,8-dihydropyrido[4,3-d]pyrimidin-5(6H)-one] the value was 0.0404 µM.
For `COc1nc(N)c2c(n1)CCN(c1ccc([C@H]3CC[C@H](Cc4nc(C)no4)CC3)c(F)c1)C2=O` [Example 7E, 4-amino-6-(3-fluoro-4-{trans-4-[(3-methyl-1,2,4-oxadiazol-5-yl)methyl]cyclohexyl}phenyl)-2-methoxy-7,8-dihydropyrido[4,3-d]pyrimidin-5(6H)-one] the value was 0.0387 µM; for `COc1nc(N)c2c(n1)CCN(c1ccc(OC(C)C)cc1)C2=O` [Example 9G, 4-amino-6-(4-isopropoxyphenyl)-2-methoxy-7,8-dihydropyrido[4,3-d]pyrimidin-5(6H)-one], 0.102 µM.
In the case of `COc1nc(N)c2c(n1)CCN(c1ccc([C@H]3C[C@H](O)C3)cc1)C2=O` [Example 1I, 4-amino-6-[4-(trans-3-hydroxycyclobutyl)phenyl]-2-methoxy-7,8-dihydropyrido[4,3-d]pyrimidin-5(6H)-one] it was 0.0958 µM; in that of `COc1nc(N)c2c(n1)CCN(c1ccc(C(C)(C)C)c(F)c1)C2=O` [Example 6H, 4-amino-6-(4-tert-butyl-3-fluorophenyl)-2-methoxy-7,8-dihydropyrido[4,3-d]pyrimidin-5(6H)-one], 0.0126 µM; in that of `COc1nc(N)c2c(n1)CCN(c1ccc(S(=O)(=O)C(C)(C)C)cc1)C2=O` [Example 9P, 4-amino-6-[4-(tert-butylsulfonyl)phenyl]-2-methoxy-7,8-dihydropyrido[4,3-d]pyrimidin-5(6H)-one], 0.784 µM.
Regarding `COc1nc(N)c2c(n1)CCN(c1ccc(C3CC3)cc1)C2=O` [Example 1E, 4-amino-6-(4-cyclopropylphenyl)-2-methoxy-7,8-dihydropyrido[4,3-d]pyrimidin-5(6H)-one], the IC50 worked out at 0.0288 µM.
For `COc1nc(N)c2c(n1)CCN(c1ccc(C3CC(F)(F)C3)cc1)C2=O` [Example 1H, 4-amino-6-[4-(3,3-difluorocyclobutyl)phenyl]-2-methoxy-7,8-dihydropyrido[4,3-d]pyrimidin-5(6H)-one] the value was 0.0576 µM; for `COc1nc(N)c2c(n1)CCN(c1ccc(C(O)(C(F)(F)F)C(F)(F)F)cc1)C2=O` [Example 1X, 4-amino-2-methoxy-6-{4-[2,2,2-trifluoro-1-hydroxy-1-(trifluoromethyl)ethyl]phenyl}-7,8-dihydropyrido[4,3-d]pyrimidin-5(6H)-one], 0.00519 µM; for `COc1nc(N)c2c(n1)CCN(c1ccc(C(F)(F)F)cc1)C2=O` [Example 6F, 4-amino-2-methoxy-6-[4-(trifluoromethyl)phenyl]-7,8-dihydropyrido[4,3-d]pyrimidin-5(6H)-one], 0.329 µM.
Consider `COc1nc(N)c2c(n1)CCN(c1ccc(C(C)(C)CNC(C)=O)cc1)C2=O` [Example 3U, N-{2-[4-(4-amino-2-methoxy-5-oxo-7,8-dihydropyrido[4,3-d]pyrimidin-6(5H)-yl)phenyl]-2-methylpropyl}acetamide], for which the IC50 is 0.0843 µM.
For `CCc1ccc(N2CCc3nc(OC)nc(N)c3C2=O)cc1` [Example 1B, 4-amino-6-(4-ethylphenyl)-2-methoxy-7,8-dihydropyrido[4,3-d]pyrimidin-5(6H)-one] the value was 0.0527 µM; for `COc1nc(N)c2c(n1)CCN(c1ccc(C(C)(C)F)cc1)C2=O` [Example 2C, 4-amino-6-[4-(1-fluoro-1-methylethyl)phenyl]-2-methoxy-7,8-dihydropyrido[4,3-d]pyrimidin-5(6H)-one], 0.0866 µM; for `COc1nc(N)c2c(n1)CCN(c1ccc(C(C)(C)C#N)cc1)C2=O` [Example 3O, 2-[4-(4-amino-2-methoxy-5-oxo-7,8-dihydropyrido[4,3-d]pyrimidin-6(5H)-yl)phenyl]-2-methylpropanenitrile], 0.0883 µM.
In the case of `COc1nc(N)c2c(n1)CCN(c1ccc([S+]([O-])C(C)(C)C)cc1)C2=O` (centres unmarked) [Example 9O, 4-amino-6-[4-(tert-butylsulfinyl)phenyl]-2-methoxy-7,8-dihydropyrido[4,3-d]pyrimidin-5(6H)-one] it was 0.648 µM.
For `COc1nc(N)c2c(n1)CCN(c1ccc(Cl)c(F)c1)C2=O` [Example 9D, 4-amino-6-(4-chloro-3-fluorophenyl)-2-methoxy-7,8-dihydropyrido[4,3-d]pyrimidin-5(6H)-one] the value was 0.101 µM; for `COc1nc(N)c2c(n1)CCN(c1ccc(C(C)(C)C)cc1F)C2=O` [Example 6I, 4-amino-6-(4-tert-butyl-2-fluorophenyl)-2-methoxy-7,8-dihydropyrido[4,3-d]pyrimidin-5(6H)-one], 0.0049 µM; for `COc1nc(N)c2c(n1)CCN(c1ccc(OCC3CC3)cc1)C2=O` [Example 9H, 4-amino-6-[4-(cyclopropylmethoxy)phenyl]-2-methoxy-7,8-dihydropyrido[4,3-d]pyrimidin-5(6H)-one], 0.115 µM.
`COc1nc(N)c2c(n1)CCN(c1ccc(Cl)c(Cl)c1)C2=O` [Example 9A, 4-amino-6-(3,4-dichlorophenyl)-2-methoxy-7,8-dihydropyrido[4,3-d]pyrimidin-5(6H)-one]: the IC50 was determined as 0.0689 µM.
For `COc1nc(N)c2c(n1)CCN(c1ccc(C(=O)OC3CCCCC3)cc1)C2=O` [Example 2G, Cyclohexyl 4-(4-amino-2-methoxy-5-oxo-7,8-dihydropyrido[4,3-d]pyrimidin-6(5H)-yl)benzoate] the value was 0.0744 µM.
As for `COc1nc(N)c2c(n1)CCN(c1ccc(C(C)(C)OC)cc1)C2=O` [Example 2D, 4-amino-2-methoxy-6-[4-(1-methoxy-1-methylethyl)phenyl]-7,8-dihydropyrido[4,3-d]pyrimidin-5(6H)-one], the IC50 was determined as 0.0346 µM.
For `COc1nc(N)c2c(n1)CCN(c1ccc(OC(F)(F)F)cc1)C2=O` [Example 1A, 4-amino-2-methoxy-6-[4-(trifluoromethoxy)phenyl]-7,8-dihydropyrido[4,3-d]pyrimidin-5(6H)-one] the value was 0.0904 µM.
